Experimental data published in article PMC6017322, “Triterpene Acids from Frankincense and Semi-Synthetic Derivatives That Inhibit 5-Lipoxygenase and Cathepsin G” (Molecules : A Journal of Synthetic Chemistry and Natural …, 2018).

Key:
5-LO [1] = target: T1, 5-LO (Homo sapiens, UniProt P09917); experiment: 5-LO activity in a cell-free assay (isolated human recombinant 5-LO, 20 µM arachidonic acid); assay type: biochemical; parameters: made in house; host or cells: Escherichia coli BL21 (pT3-5-LO plasmid); settings: for IC50: isolated human 5-LO; for IC50 / remaining activity at 10 µM / 5-LO Activity [% Control] cell-free: 20 µM arachidonic acid; for remaining activity at 10 µM / 5-LO Activity [% Control] cell-free: residual activity at 10 µM, isolated 5-LO, mean ± SEM, 3–4 experiments; for remaining activity at 10 µM: read-out: 5-LO Activity [% Control] cell-free; for inhibition at 10 µM / inhibition of 5-LO activity, cell-free: at 10 µM
T1 sequence (P09917 1-674): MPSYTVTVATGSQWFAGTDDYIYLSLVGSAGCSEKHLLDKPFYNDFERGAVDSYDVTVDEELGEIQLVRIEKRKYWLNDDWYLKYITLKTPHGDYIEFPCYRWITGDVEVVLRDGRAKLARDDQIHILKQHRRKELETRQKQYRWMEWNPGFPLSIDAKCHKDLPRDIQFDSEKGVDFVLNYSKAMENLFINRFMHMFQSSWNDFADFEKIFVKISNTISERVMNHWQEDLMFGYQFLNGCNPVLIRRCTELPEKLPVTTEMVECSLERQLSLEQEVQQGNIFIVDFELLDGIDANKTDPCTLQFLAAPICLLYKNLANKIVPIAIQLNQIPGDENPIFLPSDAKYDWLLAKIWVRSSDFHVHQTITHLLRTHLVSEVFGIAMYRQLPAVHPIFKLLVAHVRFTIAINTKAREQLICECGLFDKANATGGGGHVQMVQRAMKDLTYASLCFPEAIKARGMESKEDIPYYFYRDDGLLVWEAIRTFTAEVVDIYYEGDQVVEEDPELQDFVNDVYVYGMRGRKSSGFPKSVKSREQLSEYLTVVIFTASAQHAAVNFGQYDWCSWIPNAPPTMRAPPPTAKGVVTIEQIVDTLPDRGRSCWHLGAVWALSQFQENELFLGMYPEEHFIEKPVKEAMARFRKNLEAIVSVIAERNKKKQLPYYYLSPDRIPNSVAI
Experimental: Human recombinant 5-LO was expressed in Eschericha coli BL21 transformed with pT3-5-LO plasmid at 30 °C overnight, as described elsewhere. Cells were lysed in lysis buffer containing triethanolamine (50 mM, pH 8.0), EDTA (5 mM), phenylmethanesulfonyl fluoride (1 mM), soybean trypsin inhibitor (60 µg/mL), dithiothreitol (2 mM), and lysozyme (1 mg/mL), and homogenized by sonification (3 × 15 s). 5-LO was then purified from 40,000× g supernatant (20 min, 4 °C) using an ATP-agarose column (Sigma-Aldrich, Deisenhofen, Germany), diluted with PBS buffer containing 1 mM EDTA, and immediately used for 5-LO activity assays.
To determine 5-LO activity, aliquots of purified 5-LO (0.5 µg 5-LO in 1 mL PBS plus 1 mM EDTA) were pre-incubated with the test compounds or vehicle (0.1% dimethyl sulfoxide, DMSO) on ice for 15 min, pre-warmed for 30 s at 37 °C in a water bath, and then stimulated with 20 µM AA and CaCl2 2 mM for 10 min at 37 °C. The reaction was stopped with one volume of ice-cold methanol and 5-LO products (including all-trans-isomers of LTB4 and 5-hydroperoxyeicosatetraenoic acid (5-HpETE), as well as its corresponding alcohol 5-hydroxyeicosatetraenoic acid (5-HETE)) were analyzed by reversed phase (RP)-HPLC (Elite LaChrom, VWR, Radnor, PA, USA) as previously described. In brief, acidified PBS and 200 ng of internal PGB1 standard were added and solid phase extraction using C18 RP-columns (100 mg, UCT, Bristol, PA, USA) was performed. After elution with methanol, samples were analyzed by RP-HPLC using a C-18 Radial-PAK column (Waters, Eschborn, Germany).

cathepsin G = target: T2, cathepsin G (Homo sapiens, UniProt P08311); experiment: Cathepsin G activity in a cell-free assay (Suc-AAPF-pNA substrate); assay type: biochemical; settings: for Cat. G IC50 / IC50 / remaining activity at 10 µM: cell-free; for Cat. G IC50 / IC50: purified cathepsin G from human neutrophils; for IC50: read-out: Cat. G IC50 (converted); for remaining activity at 10 µM: residual activity at 10 µM, mean ± SEM, 3–4 experiments, read-out: Cat. G Activity [% Control]
T2 construct: purified cathepsin G (0.2 µg) from human neutrophils; purchased Calbiochem; host or cells: human neutrophils (natural source)
T2 sequence (P08311 21-244 limits assumed): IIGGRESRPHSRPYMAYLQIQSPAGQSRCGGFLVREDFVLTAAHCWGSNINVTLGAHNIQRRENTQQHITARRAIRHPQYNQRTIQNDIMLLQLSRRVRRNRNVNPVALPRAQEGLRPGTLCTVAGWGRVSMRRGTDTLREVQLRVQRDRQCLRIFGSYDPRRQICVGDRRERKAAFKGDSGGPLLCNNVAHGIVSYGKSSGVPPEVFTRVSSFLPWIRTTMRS
Experimental: Commercially available purified cathepsin G (0.2 µg) from human neutrophils (Calbiochem, La Jolla, CA, USA) was mixed with test compounds or DMSO (vehicle control) in 200 µL 0.1 M HEPES pH 7.4, 0.5 M NaCl, and 10% DMSO in a 96-well plate (Greiner Bio-One, Frickenhausen, Germany) and pre-incubated for 20 min at 25 °C. Then, N-Suc–Ala–Ala–Pro–Phe–pNA (Suc–AAPF–pNA) (1 mM) as substrate for cathespin G was added, and the absorbance was measured at 410 nm at 25 °C using a Victor^2 plate reader (PerkinElmer, Waltham, MA, USA).

5-LO [2] = target: T1, 5-LO; experiment: 5-LO product formation in intact human neutrophils stimulated with A23187 (cell-based); parameters: 5-LO product formation in intact human neutrophils; endogenous in cells; host or cells: freshly isolated human peripheral blood neutrophils; settings: for IC50: human neutrophils stimulated with A23187; for remaining activity at 10 µM / 5-LO Activity [% Control] cell-based: residual activity at 10 µM, A23187, mean ± SEM, 3–4 experiments; for remaining activity at 10 µM: read-out: 5-LO Activity [% Control] cell-based
Experimental: Neutrophils were isolated from peripheral blood (University Hospital Tübingen, Germany), collected from fasted healthy adult donors that were informed about the aim of the study and gave written consent. Leukocyte concentrates were obtained by centrifugation (4000× g, 20 min, 20 °C) of heparinized blood preparation, and neutrophils were immediately isolated as described before. Briefly, leukocyte concentrates were subjected to dextran sedimentation and centrifuged on lymphocyte separation medium (LSM 1077, PAA, Coelbe, Germany). For isolation of pelleted neutrophils, remaining erythrocytes were removed by hypotonic lysis, washed twice with ice-cold phosphate-buffered saline (PBS) and finally resuspended in PBS buffer containing 0.1% glucose and CaCl2 (1 mM) (PGC buffer).
5-LO product formation in intact human neutrophils was performed using 5 × 10^6 freshly isolated cells that were resuspended in 1 mL PGC buffer. Cells were pre-incubated with the test compounds or vehicle (0.1% DMSO) at 37 °C for 15 min prior to stimulation with 2.5 µM Ca^2+-ionophore A23187 for 10 min (37 °C). 5-LO product formation was stopped by addition of one volume of ice-cold methanol, samples were subjected to solid phase extraction after addition of 200 ng PGB1 as internal standard, and 5-LO products (LTB4, its trans-isomers and 5-HETE) were analyzed by RP-HPLC as described above.

Compound	IC50 (5-LO [1]) [µM]	remaining activity at 10 µM (5-LO [1]) [%]	Cat. G IC50 (cathepsin G)	IC50 (cathepsin G) [µM]	remaining activity at 10 µM (cathepsin G) [%]	IC50 (5-LO [2]) [µM]	remaining activity at 10 µM (5-LO [2]; human neutrophils) [%]	inhibition at 10 µM (5-LO [1]) [%]	inhibition at 10 µM (5-LO [2]; at 10 µM, human neutrophils, read-out: inhibition of 5-LO activity in intact cells) [%]	5-LO Activity [% Control] cell-based (5-LO [2]; human neutrophils)	inhibition of 5-LO activity, cell-free (5-LO [1])	5-LO Activity [% Control] cell-free (5-LO [1])	inhibition of 5-LO activity in intact cells (5-LO [2]; at 10 µM, human neutrophils)	inhibition at 10 µM (cathepsin G; at 10 µM) [%]	inhibition of cathepsin G (cathepsin G; at 10 µM)
CC(=O)O[C@@H]1CC[C@@]2(C)[C@@H](CC[C@]3(C)[C@@H]2C(=O)C=C2[C@@H]4[C@@H](C)[C@H](C)CC[C@]4(C)CC[C@]23C)[C@@]1(C)C(=O)O [compound 1, 3-O-acteyl-11-keto-β-BA]	3	40.7 ± 10.8	submicromolar	0.6	14.8 ± 0.9	3	23.1 ± 9.8	–	–	–	–	–	–	–	–
C[C@H]1[C@H](C)CC[C@]2(C)CC[C@]3(C)C(=CC(=O)[C@@H]4[C@@]5(C)CC[C@@H](O)[C@](C)(C(=O)O)[C@@H]5CC[C@]43C)[C@H]12 [compound 2, 11-keto-β-BA]	4.6	31.1 ± 5	–	4.1	29.4 ± 3.5	3.5	25.7 ± 7.3	–	–	–	–	–	–	–	–
C[C@H]1[C@H](C)CC[C@]2(C)CC[C@]3(C)C(=CC[C@@H]4[C@@]5(C)CC[C@@H](O)[C@](C)(C(=O)O)[C@@H]5CC[C@]43C)[C@H]12 [compound 3, β-BA]	–	78.7 ± 12.6	submicromolar	0.5	27.7 ± 1.8	–	53 ± 7.6	21 to 26	47	–	–	–	–	–	–
CC(=O)O[C@@H]1CC[C@@]2(C)[C@@H](CC[C@]3(C)[C@@H]2CC=C2[C@@H]4[C@@H](C)[C@H](C)CC[C@]4(C)CC[C@]23C)[C@@]1(C)C(=O)O [compound 4, 3-O-acteyl-β-BA]	–	73.5 ± 13.3	–	2	28.1 ± 4.9	–	–	21 to 26	–	n.i.	–	–	–	–	–
C=C(C)[C@@H]1CC[C@]2(C)[C@H](CC=C3[C@@H]4[C@@H](C)[C@H](C)CC[C@]4(C)CC[C@]32C)[C@@]1(C)CCC(=O)O [compound 5]	–	–	–	–	69.8 ± 8	–	74.5 ± 3.7	–	–	–	failed in this respect	n.i.	hardly active	–	–
CC(C)[C@@H]1CC[C@]2(C)[C@H](CC=C3[C@@H]4[C@@H](C)[C@H](C)CC[C@]4(C)CC[C@]32C)[C@@]1(C)CCC(=O)O [compound 6]	–	–	–	–	70.4 ± 3.9	–	–	–	–	n.i.	failed in this respect	n.i.	hardly active	–	–
CC(C)[C@@H]1CC[C@]2(C)[C@H](C(=O)C=C3[C@@H]4[C@@H](C)[C@H](C)CC[C@]4(C)CC[C@]32C)[C@@]1(C)CCC(=O)O [compound 7]	–	73 ± 8.1	–	–	53.8 ± 8.1	4.3	7.1 ± 3.3	27	–	–	–	–	–	–	–
C=C(C)[C@@H]1CC[C@]2(C)CC[C@]3(C)[C@H](CC[C@@H]4[C@@]5(C)CC[C@@H](O)[C@](C)(C(=O)O)[C@@H]5CC[C@]43C)[C@@H]12 [compound 9]	–	76.6 ± 12.2	–	–	58.1 ± 3.6	4	36.2 ± 5.1	–	–	–	did not markedly inhibit 5-LO	–	–	27 to 44	–
C=C(C)[C@@H]1CC[C@]2(C)CC[C@]3(C)[C@H](CC[C@@H]4[C@@]5(C)CC[C@@H](OC(C)=O)[C@](C)(C(=O)O)[C@@H]5CC[C@]43C)[C@@H]12 [compound 10]	–	–	–	7.5	35.9 ± 2.5	–	88.7 ± 6.7	–	–	–	did not markedly inhibit 5-LO	n.i.	–	> 50	–
C=C(C)[C@@H]1CC[C@]2(CO)CC[C@]3(C)[C@H](CC[C@@H]4[C@@]5(C)CC[C@@H](O)[C@](C)(C(=O)O)[C@@H]5CC[C@]43C)[C@@H]12 [compound 11]	10	52.7 ± 7.1	–	–	68.1 ± 6.5	4.6	24 ± 7.2	–	–	–	–	–	–	27 to 44	–
C=C(C)[C@@H]1CC[C@]2(CO)CC[C@]3(C)[C@H](CC[C@@H]4[C@@]5(C)CC[C@@H](OC(C)=O)[C@](C)(C(=O)O)[C@@H]5CC[C@]43C)[C@@H]12 [compound 12]	8.3	41.8 ± 3.4	–	–	87.2 ± 2.5	5.1	28.4 ± 11.1	–	–	–	–	–	–	–	failed to markedly inhibit cathepsin G
